# Patent US4839380A, “1-Thiocarbamoylmethylpyrrolidine-2-thione, medical compositions of, and anti-hypoxic and nootropic use thereof” (priority 1988, dated 1989)
# Tests used:
# [1] = Convulsions caused by thiosemicarbazide; format: in vivo, white mice
# From the text: The interaction of the compound according to the present invention with thiosemicarbazide--a specific antagonist of gamma-aminobutyric acid (GABA) was also studied.
# Due to the fact that in functioning of the brain, in particular in processes of learning and memorizing, gammaaminobutyric acid (GABA) plays an important role, the possibility of the presence of a GABA-ergic component in the mechanism of action of the compound according to the present invention was studied. To this end, the ability of the compound according to the present invention to prevent convulsions caused by thiosemicarbazide, which is an inhibitor of an enzyme synthesizing gamma-aminobutyric acid, was studied.
# The experiments were carried out on 140 white mice of 18-20 g mass. Thiosemicarbazide was administered hypodermally in the dose of 20 mg/kg. The compound according to the present invention was administered intraperitoneally in the doses of 50, 250 and 500 mg/kg 20 minutes after administration of thiosemicarbazide. For every dose 20 mice were used. The presence of the anticonvulsion activity was determined by the change of the latent period of occurrence of convulsions and by extension of the period of death of the animals. The experiments were carried out in comparison with pyracetam.
# mice [2] = assay: Toxicity and general effect; format: in vivo
# Protocol: The study of toxicity and a general effect of the compound according to the present invention was effected on mice with a mass of 18-20 g upon an intraperitoneal administration of the compound according to the present invention in doses of from 100 to 1.500 mg/kg.
# [3] = Solubility and storage stability; format: physicochemical
# rats = assay: Acute normobaric hypoxia: lifespan of rats; format: in vivo
# Protocol: (§1) The antihypoxic effect of the compound according to the present invention was studied in comparison with pyracetam on various experimental models of hypoxic states in experiments on mice and rats. The compound according to the present invention and pyracetam were administered intraperitoneally in the form of an aqueous emulsion prepared with Tween-80.
# Investigations were also carried out with a model of an acute normobaric hypoxia.
# An acute normobaric hypoxia was simulated in a flow-type barometric chamber at an ambient temperature of 17°-22° C. with absorption of carbon dioxide and water. A gas mixture ([…] and 3% of O2) was admitted into the barometric chamber at the rate of 10 1/min. The lifespan of test animals (mice, rats) in the chambers was recorded since the moment of the mixture admission into the chamber till the moment of perdition of the animals which was adjudicated by an agonal breathing against the background of convulsions. The modes of administration of the preparations, species of animals and analysis of the results of the experiments are similar to those described hereinbefore for the case of an acute hypobaric hypoxia. The experiments were carried out using 50 mice and 20 rats.
# [4] = Learning speed, performing of conditional reflex and memory consolidation (overall); format: in vivo, rats and mice; conditions: conditional reflex, memory consolidation, versus pyracetam
# Protocol: The compound according to the present invention was also tested for the effect produced thereby on processes of learning and memorizing.
# The study of the compound according to the present invention for the speed of learning and performing the produced conditioned reflux was effected in experiments on rats using the method of electrodefensive conditioned reflexes of avoidance.
# In experiments on mice the compound according to the present invention was tested for the effects produced thereby on processes of memory consolidation according to the results of investigation of the conditional response of passive avoidance.
# rats' cerebral cortex = assay: Acute repeating anoxia (asphyxial hypoxia): electrical activity of the cerebral cortex of rats; format: in vivo
# Protocol: The studies were conducted on a model of an acute repeating anoxia.
# The studies were carried out in experiments on rats with a mass of 180-200 g with nichrome electrodes in the brain (cerebral) cortex; after tracheostomy the animals were connected to the artificial-breathing apparatus. Anoxia was induced by repeatedly switching-off the breathing for 90, 120, 150 and 180 seconds with 10-minutes' intervals therebetween. Electrocardiogram and electrocorticogram were recorded. 53 rats altogether were used in the experiments. The antihypoxic activity of the compound according to the present invention in comparison with pyracetam was assessed by the following parameters:
# I--time till the disappearance of a cortex electrical activity after discontinuation of oxygen supply;
# II--time till the appearance of an electrocorticogram after renewal of breathing;
# III--total time of electrical "silence" of the cortex
# for each of the successive anoxiae.
# The results of the experiments were statistically evaluated using Student's T-criterion.
# mice [5] = assay: Acute histotoxic hypoxia (sodium nitroprusside): lifespan of mice; format: in vivo
# Protocol: as §1
# The studies were carried out using a model of an acute histotoxic hypoxia.
# An acute histotoxic hypoxia was induced by way of a subcutaneous injection of sodium nitroprusside in the dose of 20 mg/kg. This mode of administration results in a 100% death of mice in 15-25 minutes after administration of the preparation. The lifespan of the mice was adjudicated after administration of sodium nitroprusside against the background of the test compounds (the compound according to the present invention and pyracetam) which was recorded by the arrest of breathing and heart. In this series of experiments 40 animals altogether were used.
# [6] = prior art; cited from earlier work
# [7] = 1st anoxia, 90 seconds, 250 mg/kg
# [8] = dose 4 times that of the compound of the invention
# [9] = 1st anoxia, 90 seconds, 1.000 mg/kg
smiles,measurement,setting,value
"NC(=S)CN1CCCC1=S [Compound of the present invention, 1-thiocarbamylmethylpyrrolidine-2-thione]",Latent period of convulsion occurrence,[1]; 50 mg/kg,59 (51.5-66.5) min
same,Time period after which animals die,[1]; 50 mg/kg,76 (64-88) min
same,Latent period of convulsion occurrence,[1]; 250 mg/kg,82.6 (76.I-89.I) min
same,Time period after which animals die,[1]; 250 mg/kg,100.8 min
same,Latent period of convulsion occurrence,[1]; 500 mg/kg,80 (75.6-86.4) min
same,Time period after which animals die,[1]; 500 mg/kg,105 (95-115) min
same,extension of the latent period of occurrence of convulsions as compared to the control,[1]; 250 and 500 mg/kg i.p.,25-30%
same,extension of the period of death occurrence as compared to the control,[1]; 250 and 500 mg/kg i.p.,45-50%
same,toxicity classification,mice [2]; based on LD50,low-toxic
same,dose with which suppression of a general state of the animals starts,"mice [2]; mice, intraperitoneal",250 mg/kg
same,"solubility in N,N-dimethylformamide","[3]; N,N-dimethylformamide",soluble
same,"solubility in ether, hexane","[3]; ether, hexane",insoluble
same,storage stability,[3]; storage,stable in storage
same,increase of resistance of rats to acute normobaric hypoxia as compared to the control,rats; 250 mg/kg,1.5 times
same,"lifespan at an acute normobaric hypoxia, rats",rats; 250 mg/kg,27.38 ± 7.07 min
same,"lifespan at an acute normobaric hypoxia, rats, % (control = 100%)",rats; 250 mg/kg,147.2 ± 38.0%
same,"superiority to pyracetam in effectiveness, rats",rats; versus pyracetam at 500 mg/kg,1.5 times
same,effective doses smaller than those of pyracetam,[4],4-5 times
same,Number of animals with retained electrocorticogram after the 1st anoxia,rats' cerebral cortex; 250 mg/kg,44.0%
same,time of recovery of the functional capacity of the brain,rats' cerebral cortex; 250 mg/kg,considerably reduced
same,extension of the time till disappearance of an electrocorticogram,"rats' cerebral cortex; 250 mg/kg, especially first and second anoxiae",~2 times
same,I--time till the disappearance of a cortex electrical activity,rats' cerebral cortex; [7],84.3 ± 1.3 s
same,II--time till the appearance of an electrocorticogram after renewal of breathing,rats' cerebral cortex; [7],3.7 ± 1.5 s
same,"III--total time of electrical ""silence"" of the cortex",rats' cerebral cortex; [7],8.9 ± 3.5 s
same,"recovery of electrical activity of the brain after the 4th anoxia, effectiveness versus pyracetam",rats' cerebral cortex; versus pyracetam,7 times
same,"retention of the electrocorticogram after the first 90-seconds' anoxia, superiority to pyracetam",rats' cerebral cortex; versus pyracetam 1.000 mg/kg,3 times
same,lifespan of mice at an acute histotoxic hypoxia,mice [5]; 250 mg/kg,24.2 ± 2.46 min
same,"lifespan of mice at an acute histotoxic hypoxia, % (control = 100%)",mice [5]; 250 mg/kg,124.1 ± 12.6%
same,lifespan of mice at an acute histotoxic hypoxia,mice [5]; 500 mg/kg,32.2 ± 4.95 min
same,"lifespan of mice at an acute histotoxic hypoxia, % (control = 100%)",mice [5]; 500 mg/kg,165.5 ± 25.4%
same,superiority to pyracetam in effectiveness,"mice [5]; 500 mg/kg versus pyracetam 500 and 1,000 mg/kg",1.5 times
"NC(=O)CN1CCCC1=O [Pyracetam, 1-carbamidomethylpyrrolidone-2, reference compound]",Latent period of convulsion occurrence,[1]; 1000 mg/kg,66.6 (61.0-72.2) min
same,Time period after which animals die,[1]; 1000 mg/kg,79.9 (64-96.8) min
same,Latent period of convulsion occurrence,[1]; 2000 mg/kg,70.6 (65.6-75.6) min
same,Time period after which animals die,[1]; 2000 mg/kg,82 (73.6-90.4) min
same,extension of the latent period of occurrence of convulsions as compared to the control,[1]; [8],10%
same,extension of the period of death as compared to the control,[1]; [8],17%
same,effect on thiosemicarbazide convulsions similar to that of the compound of the invention,[1]; higher doses,pronounced but very slightly
same,"lifespan at an acute normobaric hypoxia, rats",rats; 250 mg/kg,inactive
same,"lifespan at an acute normobaric hypoxia, rats",rats; 500 mg/kg,17.3 ± 5.25 min
same,"lifespan at an acute normobaric hypoxia, rats, % (control = 100%)",rats; 500 mg/kg,93.0 ± 28.2%
same,Number of animals with recovered electrocorticogram after the 4th anoxia,"rats' cerebral cortex; 1,000 mg/kg",14.3%
same,Number of animals with retained electrocorticogram after the 1st anoxia,"rats' cerebral cortex; 1,000 mg/kg",12.5%
same,Number of animals with recovered electrocorticogram after the 4th anoxia,"rats' cerebral cortex; 1,000 mg/kg, listed as pyracetam",15%
same,I--time till the disappearance of a cortex electrical activity,rats' cerebral cortex; [9],76.7 ± 4.8 s
same,II--time till the appearance of an electrocorticogram after renewal of breathing,rats' cerebral cortex; [9],5.3 ± 0.2 s
same,"III--total time of electrical ""silence"" of the cortex",rats' cerebral cortex; [9],17.8 ± 4.9 s
same,I--time till the disappearance of a cortex electrical activity,"rats' cerebral cortex; 2nd anoxia (column 6; 120 seconds), 1.000 mg/kg",85.8 ± 7.3 s
same,II--time till the appearance of an electrocorticogram after renewal of breathing,"rats' cerebral cortex; 2nd anoxia (column 7; 120 seconds), 1.000 mg/kg",21.8 ± 6.9 s
same,"III--total time of electrical ""silence"" of the cortex","rats' cerebral cortex; 2nd anoxia (column 8; 120 seconds), 1.000 mg/kg",53.3 ± 12.0 s
same,I--time till the disappearance of a cortex electrical activity,"rats' cerebral cortex; 3rd anoxia (column 9; 150 seconds), 1.000 mg/kg",95.0 ± 16.3 s
same,II--time till the appearance of an electrocorticogram after renewal of breathing,"rats' cerebral cortex; 3rd anoxia (column 10; 150 seconds), 1.000 mg/kg",67.6 ± 42.I
same,"III--total time of electrical ""silence"" of the cortex","rats' cerebral cortex; 3rd anoxia (column 11; 150 seconds), 1.000 mg/kg",131.2 ± 53.8 s
same,I--time till the disappearance of a cortex electrical activity,"rats' cerebral cortex; 4th anoxia (column 12; 180 seconds), 1.000 mg/kg",79.4 ± 23.8 s
same,stimulative effect on the mechanisms of memory consolidation and performance of conditioned reflexes,[6],absence of a pronounced stimulative effect
same,lifespan of mice at an acute histotoxic hypoxia,"mice [5]; 1.000 mg/kg (= 1,000)",20.97 ± 1.31 min
same,"lifespan of mice at an acute histotoxic hypoxia, % (control = 100%)","mice [5]; 1.000 mg/kg (= 1,000)",107.6 ± 6.7%
same,lifespan of mice at an acute histotoxic hypoxia,mice [5]; 250 mg/kg,inactive
same,lifespan of mice at an acute histotoxic hypoxia,mice [5]; 500 mg/kg,17.98 ± 1.49 min
same,"lifespan of mice at an acute histotoxic hypoxia, % (control = 100%)",mice [5]; 500 mg/kg,92.2 ± 7.62%
